US11905281B2 (Amgen Inc., priority 2017, dated 2024)

Assays:
[1] = target: T1, GDP-bound KRAS protein (aa 1-169), containing both G12C and C118A amino acid substitutions (Homo sapiens, UniProt P01116, C118A/G12C); test: Coupled Nucleotide Exchange Assay (Table 15 conditions: 2 hours pre-incubation); format: biochemical; settings: 2 hours compound pre-incubation (Table 15 conditions)
Method: (§1) For compounds in Table 15, the following assay conditions were employed:
Following compound pre-incubation, purified SOS protein (aa 564-1049) and GTP (Roche 10106399001) were added to the assay wells and incubated for an additional hour. […] The assay plates were then read on a PerkinElmer EnVision Multilabel Reader, using AlphaScreen® technology, and data were analyzed using a 4-parameter logistic model to calculate IC50 values.

[2] = system: Phosphorylation of ERK1/2 in A549 cells; test: Phospho-ERK1/2 MSD Assay, A549 (Table 15 conditions: 4 hours compound treatment); format: cell-based; settings: Homo sapiens, A549, 4 h, EGF stimulation, read-out: p-ERK IC50 (A549)
Method: as §1
(§2) Phospho-ERK1/2 MSD Assay: MIA PaCa-2 (ATCC® CRL-1420™) and A549 (ATCC® CCL-185™) cells were cultured in RPMI 1640 Medium (ThermoFisher Scientific 11875093) containing 10% fetal bovine serum (ThermoFisher Scientific 16000044) and 1× penicillin-streptomycin-glutamine (ThermoFisher Scientific 10378016). Sixteen hours prior to compound treatment, MIA PaCa-2 or A549 cells were seeded in 96-well cell culture plates at a density of 25,000 cells/well and incubated at 37° C., 5% CO2. A compound dose-response titration was diluted in growth media, added to appropriate wells of a cell culture plate, and then incubated at 37° C., 5% CO2 for 4 hours. Following compound treatment, cells were stimulated with 10 ng/mL EGF (Roche 11376454001) for 10 min, washed with ice-cold Dulbecco's phosphate-buffered saline, no Ca^2+ or Mg^2+ (ThermoFisher Scientific 14190144), and then lysed in RIP A buffer (50 mM Tris-HCl pH 7.5, 1% Igepal, 0.5% sodium deoxycholate, 150 mM NaCl, and 0.5% sodium dodecyl sulfate) containing protease inhibitors (Roche 4693132001) and phosphatase inhibitors (Roche 4906837001). Cell lysates were stored frozen at −80° C. overnight. Phosphorylation of ERK1/2 in compound-treated lysates was assayed using Phospho-ERK1/2 Whole Cell Lysate kits (Meso Scale Discovery K151DWD) according to the manufacturer's protocol. Assay plates were read on a Meso Scale Discovery Sector Imager 6000, and data were analyzed using a 4-parameter logistic model to calculate IC50 values.

[3] = system: Phosphorylation of ERK1/2 in MIA PaCa-2 cells; test: Phospho-ERK1/2 MSD Assay, MIA PaCa-2 (Table 15 conditions: 4 hours compound treatment); format: cell-based; settings: EGF stimulation, read-out: p-ERK IC50 (MIA PaCa-2)
Method: as §1, §2

[4] = target: T1, GDP-bound KRAS protein (aa 1-169), containing both G12C and C118A amino acid substitutions; test: Coupled Nucleotide Exchange Assay (Table 16 conditions: 5 min pre-incubation); format: biochemical; settings: 5 min compound pre-incubation; SOS-mediated nucleotide exchange, AlphaScreen
Method: (§3) For compounds in Table 16, the following assay conditions were employed:
The assay plates were then read on a PerkinElmer EnVision Multilabel Reader, using AlphaScreen® technology, and data were analyzed using a 4-parameter logistic model to calculate IC50 values.

[5] = system: Phosphorylation of ERK1/2 in MIA PaCa-2 cells; test: Phospho-ERK1/2 MSD Assay, MIA PaCa-2 (Table 16 conditions: 2 hours compound treatment); format: cell-based; settings: 10 ng/mL EGF for 10 min, read-out: p-ERK IC50 (MIA PaCa-2)
Method: as §3
Sixteen hours prior to compound treatment, MIA PaCa-2 or A549 cells were seeded in 96-well cell culture plates at a density of 25,000 cells/well and incubated at 37° C., 5% CO2. A compound dose-response titration was diluted in growth media, added to appropriate wells of a cell culture plate, and then incubated at 37° C., 5% CO2 for 2 hours. […] Phosphorylation of ERK1/2 in compound-treated lysates was assayed using Phospho-ERK1/2 Whole Cell Lysate kits (Meso Scale Discovery K151DWD) according to the manufacturer's protocol. Assay plates were read on a Meso Scale Discovery Sector Imager 6000, and data were analyzed using a 4-parameter logistic model to calculate IC50 values.

[6] = system: Phosphorylation of ERK1/2 in A549 cells; test: Phospho-ERK1/2 MSD Assay, A549 (Table 16 conditions: 2 hours compound treatment); format: cell-based; settings: Homo sapiens, 10 ng/mL EGF for 10 min, read-out: p-ERK IC50 (A549)
Method: as §3
as §2, with “for 2” for “for 4”, “4906837001). […]” for “4906837001). Cell lysates were stored frozen at −80° C. overnight. Phosphorylation of ERK1/2 in compound-treated lysates was assayed using Phospho-ERK1/2 Whole Cell Lysate kits (Meso Scale Discovery K151DWD) according to the manufacturer's protocol.”

T1 sequence (P01116 1-169 isoform P01116-2 G12C/C118A): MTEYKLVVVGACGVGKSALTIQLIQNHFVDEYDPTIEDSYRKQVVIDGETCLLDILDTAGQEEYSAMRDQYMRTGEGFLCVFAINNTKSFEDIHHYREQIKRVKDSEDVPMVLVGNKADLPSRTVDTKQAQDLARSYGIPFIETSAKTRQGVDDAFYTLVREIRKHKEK

For C=CC(=O)N1CCN(c2snc3c(F)c(-c4cc(O)cc5ccccc45)c(Cl)cc23)CC1CO (racemic) [Example 1-16, 1-(4-(5-chloro-7-fluoro-6-(3-hydroxy-1-naphthalenyl)-2,1-benzothiazol-3-yl)-2-(hydroxymethyl)-1-piperazinyl)-2-propen-1-one], the “Coupled exchange IC50” value [1] was 492 nM and the IC50 [2] was over 100000 nM.
With C=CC(=O)N1CCN(c2snc3c(F)c(-c4c(C)ccc5[nH]ncc45)c(Cl)cc23)C(C(F)F)C1 (racemic) [Example 2-8, 1-(4-(5-chloro-7-fluoro-6-(5-methyl-1H-indazol-4-yl)-2,1-benzothiazol-3-yl)-3-(difluoromethyl)-1-piperazinyl)-2-propen-1-one] the “Coupled exchange IC50” value [1] was 361 nM and the IC50 [2] was over 100000 nM.
C=CC(=O)N1CCN(c2snc3c(F)c(-c4cc(O)cc5ccccc45)c(Cl)cc23)C(C(C)C)C1 (racemic) [Example 2-10, 1-(4-(5-chloro-7-fluoro-6-(3-hydroxy-1-naphthalenyl)-2,1-benzothiazol-3-yl)-3-(2-propanyl)-1-piperazinyl)-2-propen-1-one] was tested, and the “Coupled exchange IC50” value [1] was 1730 nM, the IC50 ([3]; Homo sapiens, MIA PaCa-2, 4 h) was 3070 nM and the IC50 [2] was over 100000 nM.
C=CC(=O)N1CCN(c2snc3c(F)c(-c4cc(O)cc5ccccc45)c(Cl)cc23)C(CF)C1 (racemic) [Example 7-2, 1-(4-(5-chloro-7-fluoro-6-(3-hydroxy-1-naphthalenyl)-2,1-benzothiazol-3-yl)-3-(fluoromethyl)-1-piperazinyl)-2-propen-1-one] was tested, and the “Coupled exchange IC50” value [1] was 180 nM and the IC50 [2] was over 100000 nM.
With C=CC(=O)N1CCN(c2nc(=O)n(-c3ccncc3C3CC3)c3cc(-c4c(O)cccc4F)c(Cl)cc23)[C@@H](C)C1 (single isomer, unassigned) [Example 9-7-2] the IC50 [3] was 232 nM.
For C=CC(=O)N1CCN(c2nnc(-c3c(C)ccc4[nH]ncc34)c3cc(-c4c(O)cccc4F)c(Cl)cc23)CC1 [Example 10-12, 1-(4-(7-chloro-6-(2-fluoro-6-hydroxyphenyl)-4-(5-methyl-1H-indazol-4-yl)-1-phthalazinyl)-1-piperazinyl)-2-propen-1-one], the IC50 ([3]; Homo sapiens, MIA PaCa-2, 4 h) was 22600 nM.
C=CC(=O)N1CCN(c2nc(=O)n(-c3c(C)cccc3C(C)C)c3nc(-c4c(O)cccc4F)c(Cl)cc23)[C@@H](C)C1 [Example 39, 6-Chloro-7-(2-fluoro-6-hydroxyphenyl)-1-(2-methyl-6-(2-propanyl)phenyl)-4-((2S)-2-methyl-4-(2-propenoyl)-1-piperazinyl)pyrido[2,3-d]pyrimidin-2(1H)-one] gave an IC50 [4] of 63 nM, an IC50 ([5]; MIA PaCa-2 cells) of 29 nM and an IC50 [6] of over 100000 nM.
C=CC(=O)N1CCN(c2nc(=O)n(-c3scnc3C(C)C)c3nc(-c4c(O)cccc4F)c(Cl)cc23)[C@@H](C)C1 [Example 48, 6-Chloro-7-(2-fluoro-6-hydroxyphenyl)-4-((2S)-2-methyl-4-(2-propenoyl)-1-piperazinyl)-1-(4-(2-propanyl)-1,3-thiazol-5-yl)pyrido[2,3-d]pyrimidin-2(1H)-one] gave an IC50 [4] of 81 nM, an IC50 ([5]; Homo sapiens, MIA PaCa-2, MIA PaCa-2 cells) of 63 nM and an IC50 [6] of over 10000 nM.
